System: Raji (Burkitt's) lymphoma cells
Test: MTT assay for 4-day viability of Raji (Burkitt's) lymphoma cells
Type: cell-based
Conditions: Homo sapiens, 96 h, Raji cells (highly express MCT1), read-out: approximate potency (EC50)
Source text: Specific Examples 1-52 of compounds of the invention, with estimated EC50 values determined using an MTT assay for 4-day viability of Raji (Burkitt's) lymphoma cells, a cell line known to highly express MCT1 and to be sensitive to small molecule MCT inhibitors,^4 are shown in Table 2. Assay protocols follow those described in the literature.^4 Other assays that are not described here but that are standard in the field, such as an assay for competitive inhibition of transport of radiolabeled lactic acid, an MCT substrate, may also be useful in establishing mechanism of action of these compounds.

Row | SMILES | EC50
1 | Cc1n[nH]c(C)c1Cc1sc2c(c1-c1cccc(CO)c1F)c(=O)n(C)c(=O)n2CC(C)C [Example 1, 6-((3,5-dimethyl-1H-pyrazol-4-yl)methyl)-5-(2-fluoro-3-(hydroxymethyl)phenyl)-1-isobutyl-3-methylthieno[2,3-d]pyrimidine-2,4(1H,3H)-dione] | ≤ 20 nM
2 | Cc1n[nH]c(C)c1Cc1sc2c(c1-c1cnc(F)c(CO)c1)c(=O)n(C)c(=O)n2CC(C)C [Example 4, 6-((3,5-dimethyl-1H-pyrazol-4-yl)methyl)-5-(6-fluoro-5-(hydroxymethyl)pyridin-3-yl)-1-isobutyl-3-methylthieno[2,3-d]pyrimidine-2,4(1H,3H)-dione] | 200 nM
3 | CC(C)Cc1nn(C)c(=O)c2c(-c3cc(CO)ccc3Cl)n(Cc3cccc4ccccc34)cc12 [Example 30, 7-(2-chloro-5-(hydroxymethyl)phenyl)-4-isobutyl-2-methyl-6-(naphthalen-1-ylmethyl)-2,6-dihydro-1H-pyrrolo[3,4-d]pyridazin-1-one] | 600 nM
4 | Cc1n[nH]c(C)c1Cc1sc2c(c1-c1cc(CO)c(F)cc1F)c(=O)n(C)c(=O)n2CC(C)C [Example 6, 5-(2,4-difluoro-5-(hydroxymethyl)phenyl)-6-((3,5-dimethyl-1H-pyrazol-4-yl)methyl)-1-isobutyl-3-methylthieno[2,3-d]pyrimidine-2,4(1H,3H)-dione] | ≤ 20 nM
5 | CC(C)Cc1nn(C)c(=O)c2c(-c3csc(CO)n3)n(Cc3cccc4ccccc34)cc12 [Example 26, 7-(2-(hydroxymethyl)thiazol-4-yl)-4-isobutyl-2-methyl-6-(naphthalen-1-ylmethyl)-2,6-dihydro-1H-pyrrolo[3,4-d]pyridazin-1-one] | 90 nM
6 | Cc1n[nH]c(C)c1Cc1sc2c(c1-c1ccc(F)c(CO)c1)c(=O)n(C1CC1)c(=O)n2CC(C)C [Example 16, 3-cyclopropyl-6-((3,5-dimethyl-1H-pyrazol-4-yl)methyl)-5-(4-fluoro-3-(hydroxymethyl)phenyl)-1-isobutylthieno[2,3-d]pyrimidine-2,4(1H,3H)-dione] | 220 nM
7 | CC(C)Cc1nn(C)c(=O)c2c(-c3cccc(CO)c3F)n(Cc3cccc4ccccc34)cc12 [Example 29, 7-(2-fluoro-3-(hydroxymethyl)phenyl)-4-isobutyl-2-methyl-6-(naphthalen-1-ylmethyl)-2,6-dihydro-1H-pyrrolo[3,4-d]pyridazin-1-one] | 80 nM

Further lines, results first:

Row | EC50 | SMILES
8 | 80 nM | CC(C)Cc1nn(C)c(=O)c2c(-c3cc(C(C)O)ccc3F)n(Cc3cccc4ccccc34)cc12 (stereo not drawn) [Example 35, 7-(2-fluoro-5-(1-hydroxyethyl)phenyl)-4-isobutyl-2-methyl-6-(naphthalen-1-ylmethyl)-2,6-dihydro-1H-pyrrolo[3,4-d]pyridazin-1-one]
9 | 1000 to 10000 nM | CC(C)Cc1nn(C)c(=O)c2c(-c3cccc(C(C)O)c3)n(Cc3ccc(-c4ccccc4)cc3)cc12 (stereo not drawn) [Example 42, 6-([1,1′-biphenyl]-4-ylmethyl)-7-(3-(1-hydroxyethyl)phenyl)-4-isobutyl-2-methyl-2,6-dihydro-1H-pyrrolo[3,4-d]pyridazin-1-one]
10 | 100 nM | CC(C)Cc1nn(C)c(=O)c2c(-c3cccc(C(C)O)c3)n(Cc3cccc4ccccc34)cc12 (stereo not drawn) [Example 36, 7-(3-(1-hydroxyethyl)phenyl)-4-isobutyl-2-methyl-6-(naphthalen-1-ylmethyl)-2,6-dihydro-1H-pyrrolo[3,4-d]pyridazin-1-one]
11 | 900 nM | CC(C)Cc1nn(C)c(=O)c2c(-c3cncc(CO)c3)n(Cc3cccc4ccccc34)cc12 [Example 32, 7-(5-(hydroxymethyl)pyridin-3-yl)-4-isobutyl-2-methyl-6-(naphthalen-1-ylmethyl)-2,6-dihydro-1H-pyrrolo[3,4-d]pyridazin-1-one]
12 | 1000 nM | CC(C)Cc1nn(C)c(=O)c2c(-c3cccc(C(C)O)n3)n(Cc3cccc4ccccc34)cc12 (stereo not drawn) [Example 34, 7-(6-(1-hydroxyethyl)pyridin-2-yl)-4-isobutyl-2-methyl-6-(naphthalen-1-ylmethyl)-2,6-dihydro-1H-pyrrolo[3,4-d]pyridazin-1-one]

Source: patent US10329303B2, “Heterocyclic inhibitors of monocarboxylate transporter” (THE SCRIPPS RESEARCH INSTITUTE, priority 2015, dated 2019)
